According to patent US20070264330A1 (priority 2006, published 2007):

Assays:
[1] = Solubility in water of the tartrate salt; assay type: physicochemical; settings: tartrate salt versus compound of formula I
Text: The tartrate salt of pimavanserin may be prepared as an integrated part of the process for synthesizing the compound as described above by using tartaric acid as the salt forming acid. Alternatively, the tartrate salt may be formed by reaction of the isolated compound of formula I with tartaric acid.

[2] = Excipient compatibility study with crystalline Form A: HPLC assay of % drug; assay type: physicochemical
Protocol: Physical mixtures of crystalline Form A and fourteen processing excipients, gelatin and hydroxypropyl methylcellulose capsules, and drug substance alone were prepared. […] Each sample group was stored under the following conditions: 5° C. (for time=0 testing), 40° C./75% RH (relative humidity) one month, and 40° C./75% RH three months. Bulk drug substance was weighed and added to a sample vial. De-ionized water was then measured (0.015 mL) and added to the vials designated as wet samples. The wet samples were then mixed using a vortex mixer for approximately 15 seconds to incorporate the water and the drug. Excipient was then weighed and added to appropriate vials. The contents of each vial were mixed for approximately 15 seconds using a vortex mixer to produce a uniform mixture of (wet or dry) drug/excipient. To prepare the capsule samples, the bulk drug substance was weighed directly into the capsule. The capsules were then placed into appropriate vials. Fifteen microliters of de-ionized water was added to the inside of capsules designated as wet samples. All samples were stored in 20 mL Type I clear glass scintillation vials with foil-lined screw-type vial caps were tightened by hand. Samples were stored in controlled room temperature/humidity until ready for testing. Other sample vials were stored at 40° C./75% RH unprotected from light and tested at one and three months. […] The vials were rinsed several times with diluent and added to the volumetric flasks. The contents of the capsules were transferred to 50 mL volumetric flasks and the capsule shells were also rinsed with diluent. Diluent was added to the volumetric flasks and they were sonicated for 10 minutes, then diluted to volume with diluent. The solutions were further diluted 5.0 mL into a 50 mL volumetric flask and brought to volume with diluent. These diluted solutions were used for the assay. All solutions were filtered through 0.45 micron PTFE filters, with the first 1-2 mL discarded before filling the HPLC autosampler vials. The diluted sample solutions were assayed against a reference standard of drug product prepared in a similar manner.

[3] = Excipient compatibility study with crystalline Form A: Total Related Substance (TRS); assay type: physicochemical
Protocol: Binary mixtures of drug with each excipient were prepared by physically mixing 50.0 mg (±2.0 mg) of drug substance with the specified proportion of each excipient. The stability of the drug in the presence of each excipient was studied in dry samples as well as with 30% w/w (relative to bulk drug weight) de-ionized water. Each sample group was stored under the following conditions: 5° C. (for time=0 testing), 40° C./75% RH (relative humidity) one month, and 40° C./75% RH three months.

[4] = In vivo human and non-human animal studies
[5] = wet conditions (30% w/w water added)

tartrate salt of N-(4-fluorobenzyl)-N-(1-methylpiperidin-4-yl)-N′-(4-(2-methylpropyloxy)phenylmethyl)carbamide [pimavanserin tartrate]
solubility in water [1]: improved solubility in water

CC(C)COc1ccc(CNC(=O)N(Cc2ccc(F)cc2)C2CCN(C)CC2)cc1.CC(C)COc1ccc(CNC(=O)N(Cc2ccc(F)cc2)C2CCN(C)CC2)cc1.O=C(O)C(O)C(O)C(=O)O [#17 Drug Substance]
% Drug One Month 40° C./75% RH ([2]; dry conditions): 94.9% | % Drug Three Months 40° C./75% RH ([2]; dry conditions): 95.9% | % Drug (time = 0) ([2]; dry conditions): 98.4% | % Drug One Month 40° C./75% RH [2, 5]: 91.2% | % Drug Three Months 40° C./75% RH [2, 5]: 93.5% | % Drug (time = 0) [2, 5]: 98.5% | Total related substance, 1 month - Dry ([3]; dry, 1 month 40° C./75% RH): 1.38 | Total related substance, 3 month - Dry ([3]; dry, 3 month 40° C./75% RH): 2.72 | Total related substance, Time 0 - Dry ([3]; dry, time 0): 0.35 | Total related substance, 1 month - Wet ([3]; wet (30% w/w water), 1 month 40° C./75% RH): 1.67 | Total related substance, 3 month - Wet ([3]; wet (30% w/w water), 3 month 40° C./75% RH): 3.39 | Total related substance, Time 0 - Wet ([3]; wet (30% w/w water), time 0): 0.36

CC(C)COc1ccc(CNC(=O)N(Cc2ccc(F)cc2)C2CCN(C)CC2)cc1 [pimavanserin, N-(1-methylpiperidin-4-yl)-N-(4-fluorophenylmethyl)-N′-(4-(2-methylpropyloxy)phenylmethyl)carbamide]
in vivo activity [4]: anti-psychotic, anti-dyskinesia, and anti-insomnia activity
